Where a name gives a salt, the structure may show the parent alone.
Tests used:
[1] = molecular target: T1, NEP (Rattus norvegicus, UniProt P07861); experiment: In vitro NEP-inhibitory activity in rat kidney cortex membranes ([3H][Leu5]-enkephaline hydrolysis); assay type: biochemical; design: from tissue; host or cells: kidney cortex membranes of male Sprague-Dawley rats; conditions: [3H][Leu5]-enkephaline 15 nM, 30° C., compounds of formula I tested as lithium salts
T1 sequence (P07861 1-750): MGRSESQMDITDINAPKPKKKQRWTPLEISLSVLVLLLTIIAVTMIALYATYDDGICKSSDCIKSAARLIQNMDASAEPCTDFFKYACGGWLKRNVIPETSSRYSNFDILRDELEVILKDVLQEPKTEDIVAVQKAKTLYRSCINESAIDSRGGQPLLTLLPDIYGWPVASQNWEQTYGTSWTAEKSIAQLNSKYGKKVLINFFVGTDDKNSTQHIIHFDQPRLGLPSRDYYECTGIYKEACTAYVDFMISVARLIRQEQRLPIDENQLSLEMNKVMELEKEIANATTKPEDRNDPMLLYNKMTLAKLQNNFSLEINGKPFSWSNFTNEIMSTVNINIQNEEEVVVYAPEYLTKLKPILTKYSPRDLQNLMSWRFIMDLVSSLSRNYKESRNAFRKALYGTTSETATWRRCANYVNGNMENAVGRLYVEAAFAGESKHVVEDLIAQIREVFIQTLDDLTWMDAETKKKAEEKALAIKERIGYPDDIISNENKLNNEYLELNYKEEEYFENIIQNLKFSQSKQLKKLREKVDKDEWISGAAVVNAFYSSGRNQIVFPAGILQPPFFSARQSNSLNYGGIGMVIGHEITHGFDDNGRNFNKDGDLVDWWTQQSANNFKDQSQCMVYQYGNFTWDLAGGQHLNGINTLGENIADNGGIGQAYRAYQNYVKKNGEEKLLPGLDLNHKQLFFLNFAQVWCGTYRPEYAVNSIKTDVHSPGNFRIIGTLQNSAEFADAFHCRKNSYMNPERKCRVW
Description: The NEP-inhibitory activity was evaluated in rat kidney cortex membranes prepared according to the procedure described by T. Maeda et al. in Biochim Biophys.
Cortex was carefully dissected, finely minced and suspended in a homogenization buffer (10 mM sodium phosphate pH 7.4 containing 1 mM MgCl2, 30 mM NaCl, 0.02% NaN3) 1:15 weight/volume.
The tissue was then homogenized for 30 seconds using an Ultra-Turrax homogenizer.
The membranes were collected from the buffer/sucrose interface, washed twice with 50 mM TRIS/HCl buffer (pH 7.4) and resuspended into the same buffer for storage.
The NEP-inhibitory activity was evaluated according to the method described by C.
Incubation (20 minutes at 30° C.) was stopped by adding HCl 0.1M (100 μl).
The percentage of inhibition of the metabolite formation in the membrane preparations treated with the compounds of formula I and with the comparative compounds with respect to the untreated membrane preparations was expressed as IC50 (nM) value.

[2] = molecular target: T2, ACE (Oryctolagus cuniculus, UniProt P12822); experiment: In vitro ACE-inhibitory activity (FAPGG substrate, spectrophotometric); assay type: biochemical; conditions: ACE purified by lung rabbit, FAPGG 0.8 mM, 37° C.; compounds of formula I tested as lithium salts
T2 construct: ACE (250 mU/ml purified by lung rabbit, EC 3.4.15.1 SIGMA); purchased SIGMA; host or cells: rabbit lung
T2 sequence (P12822 34-1310): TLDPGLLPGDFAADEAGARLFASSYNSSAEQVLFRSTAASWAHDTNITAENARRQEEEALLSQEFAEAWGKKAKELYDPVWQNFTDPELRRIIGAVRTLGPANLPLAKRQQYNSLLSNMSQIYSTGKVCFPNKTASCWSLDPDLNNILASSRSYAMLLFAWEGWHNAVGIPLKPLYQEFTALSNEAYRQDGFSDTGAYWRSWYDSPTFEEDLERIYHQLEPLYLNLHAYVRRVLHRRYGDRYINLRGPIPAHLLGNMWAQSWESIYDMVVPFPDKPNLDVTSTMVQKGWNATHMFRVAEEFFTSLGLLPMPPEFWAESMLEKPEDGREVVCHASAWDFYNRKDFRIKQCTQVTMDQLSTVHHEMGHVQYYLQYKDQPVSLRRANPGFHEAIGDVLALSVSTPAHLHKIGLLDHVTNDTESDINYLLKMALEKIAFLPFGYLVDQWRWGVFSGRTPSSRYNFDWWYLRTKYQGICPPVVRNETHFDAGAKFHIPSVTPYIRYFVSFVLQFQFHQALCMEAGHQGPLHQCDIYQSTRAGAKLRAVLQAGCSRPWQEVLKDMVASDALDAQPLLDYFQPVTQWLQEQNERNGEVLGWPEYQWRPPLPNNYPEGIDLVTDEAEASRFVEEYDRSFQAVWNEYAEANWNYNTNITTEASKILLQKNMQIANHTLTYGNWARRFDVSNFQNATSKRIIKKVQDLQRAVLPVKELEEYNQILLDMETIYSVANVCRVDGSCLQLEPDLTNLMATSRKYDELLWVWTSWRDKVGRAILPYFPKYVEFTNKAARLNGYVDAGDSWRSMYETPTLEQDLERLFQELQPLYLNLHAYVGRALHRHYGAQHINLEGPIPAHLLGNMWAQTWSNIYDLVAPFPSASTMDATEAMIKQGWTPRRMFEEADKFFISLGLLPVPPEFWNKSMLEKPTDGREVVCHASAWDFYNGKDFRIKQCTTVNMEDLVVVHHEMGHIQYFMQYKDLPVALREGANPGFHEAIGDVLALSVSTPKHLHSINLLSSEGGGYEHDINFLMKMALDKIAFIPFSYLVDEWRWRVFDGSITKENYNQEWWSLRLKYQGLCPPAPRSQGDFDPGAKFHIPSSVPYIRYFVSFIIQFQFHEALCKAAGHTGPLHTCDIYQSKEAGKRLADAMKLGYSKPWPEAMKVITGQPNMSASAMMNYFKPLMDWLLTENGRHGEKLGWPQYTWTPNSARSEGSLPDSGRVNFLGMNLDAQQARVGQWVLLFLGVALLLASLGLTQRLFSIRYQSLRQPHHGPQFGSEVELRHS
Description: The reaction was started by adding furylacryloylphenylalanylglycylglycine 0.8 mM (FAPGG-SIGMA).
Contemporaneously, by using a Beckman DU-50 spectrophotometer provided with a program for calculating delta A/minutes and regression coefficients of the enzyme kinetics curves, the absorbance at 340 nm was recorded in continuo for 5 minutes.

[3] = molecular target: T3, ACE (Rattus norvegicus, UniProt P47820); experiment: Ex vivo ACE-inhibitory activity in lungs of SHR after i.v. injection; design: species or system spontaneously hypertensive rats (SHR); conditions: iv, 5 minutes after i.v. injection, 21 μmoles/kg, read-out: ACE-inhibitory activity (lung) % of inhibition
T3 construct: After the removal of the lungs from SHR, the lung tissue was homogenized; from tissue; host or cells: lung homogenate of spontaneously hypertensive rats (SHR) dosed i.v
T3 sequence (P47820 36-1313): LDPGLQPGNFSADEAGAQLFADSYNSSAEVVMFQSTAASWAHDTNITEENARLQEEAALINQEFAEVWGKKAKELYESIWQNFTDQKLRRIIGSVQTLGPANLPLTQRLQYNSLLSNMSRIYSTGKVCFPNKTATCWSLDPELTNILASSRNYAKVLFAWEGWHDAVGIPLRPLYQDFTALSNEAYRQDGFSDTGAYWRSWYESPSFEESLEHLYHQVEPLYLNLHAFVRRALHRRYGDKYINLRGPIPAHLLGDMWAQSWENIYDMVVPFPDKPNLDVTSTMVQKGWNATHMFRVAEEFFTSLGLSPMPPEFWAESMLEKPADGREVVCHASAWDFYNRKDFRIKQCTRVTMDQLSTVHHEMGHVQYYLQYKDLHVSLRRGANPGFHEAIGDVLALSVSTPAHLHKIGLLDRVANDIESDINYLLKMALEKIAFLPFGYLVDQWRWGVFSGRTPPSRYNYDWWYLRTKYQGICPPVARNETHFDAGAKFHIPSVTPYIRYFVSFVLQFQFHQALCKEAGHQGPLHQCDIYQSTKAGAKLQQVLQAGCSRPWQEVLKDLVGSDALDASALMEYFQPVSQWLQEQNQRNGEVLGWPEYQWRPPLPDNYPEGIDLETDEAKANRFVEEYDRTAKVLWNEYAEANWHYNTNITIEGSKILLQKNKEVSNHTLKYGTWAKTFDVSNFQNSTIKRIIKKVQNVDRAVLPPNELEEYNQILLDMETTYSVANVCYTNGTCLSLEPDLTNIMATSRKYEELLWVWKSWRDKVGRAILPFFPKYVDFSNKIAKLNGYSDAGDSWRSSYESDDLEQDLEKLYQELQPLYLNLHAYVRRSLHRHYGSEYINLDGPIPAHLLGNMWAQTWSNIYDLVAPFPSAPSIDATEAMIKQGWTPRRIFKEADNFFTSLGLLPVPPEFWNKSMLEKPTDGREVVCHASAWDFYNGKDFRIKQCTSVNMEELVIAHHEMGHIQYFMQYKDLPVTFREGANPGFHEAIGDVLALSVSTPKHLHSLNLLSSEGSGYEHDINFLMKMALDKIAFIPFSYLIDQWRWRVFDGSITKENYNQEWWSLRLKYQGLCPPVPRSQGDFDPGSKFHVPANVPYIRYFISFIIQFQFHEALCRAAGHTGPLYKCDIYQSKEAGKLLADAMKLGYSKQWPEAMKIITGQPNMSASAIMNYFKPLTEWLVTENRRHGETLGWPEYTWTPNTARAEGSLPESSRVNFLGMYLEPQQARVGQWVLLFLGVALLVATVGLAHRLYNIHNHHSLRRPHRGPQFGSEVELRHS
Description: After the removal of the lungs from SHR, the lung tissue was homogenized and incubated for 2 hours at 37° C. in the presence of [^3H]Hyp-Gly-Gly, as a substrate.
The reaction was stopped by adding hydrochloric acid.
The released radio-labelled hyppuric acid was extracted with ethyl acetate and counted by liquid scintillation spectrometry, according to conventional methods.

[4] = molecular target: T1, NEP; experiment: Ex vivo NEP-inhibitory activity in kidneys of SHR after i.v. injection; design: After the removal of the kidneys from SHR, the renal tissue was homogenized; from tissue; host or cells: kidney homogenate of spontaneously hypertensive rats (SHR) dosed i.v; species or system spontaneously hypertensive rats (SHR); conditions: iv, 5 minutes after i.v. injection, 21 μmoles/kg, read-out: NEP-inhibitory activity (kidney) % of inhibition
Description: After the removal of the kidneys from SHR, the renal tissue was homogenized and incubated for 15 minutes at 37° C. in the presence of Glutaryl-Ala-Ala-Phe-2-naphthyliamide (GAAP), as a substrate, and aminopeptidase M at pH 7.6. The reaction was stopped by adding an aqueous solution at 10% of trichloroacetic acid.
The released 2-naphthylamine was determined by adding fast garnet dye (2 ml).

NEP-inhibitory activity IC50 (nM) [1] | IC50 [2] [nM] | inhibition at 21 µmol/kg [3] [%] | IC50 [1] [nM] | inhibition at 21 µmol/kg [4] [%] | Compound
not active | – | – | – | – | C[C@H](CS)C(=O)N1CCC[C@H]1C(=O)O [Captopril]
– | 20 | 25 | 5.5 | 20 | O=C(O)[C@H](Cc1ccccc1)NC(=O)[C@H](Cc1ccccc1)NP(=O)(O)CCCCc1ccccc1 [Compound R-1, N-[N′-(4-phenyl)butylphosphonyl-L-phenlalanyl]-L-phenylalanine dilithium salt]

— US6548480B1, “Phosphonic acid derivatives with metallopeptidase inhibitory activity” (Zambon Group S.p.A., priority 1995, dated 2003)
